According to ChEMBL document CHEMBL1799929, “Efficient sequential synthesis of PET Probes of the COX-2 inhibitor [11C]celecoxib and its major metabolite [11C]SC-62807 and in vivo PET evaluation” (Bioorg Med Chem, 2011):

Tests used:
Assay type in all cases: ADME, organism-based; call rule not given here
Blood [1] = assay: Drug uptake in Sprague-Dawley rat blood at 0.29 to 1.3 nmol/body, iv after 60 mins by gamma counting based PET imaging method; conditions: in vivo, 1 h
Blood [2] = assay: Drug uptake in Sprague-Dawley rat blood at 0.29 to 1.3 nmol/body, iv after 40 mins by gamma counting based PET imaging method; conditions: in vivo
Liver [3] = assay: Drug uptake in Sprague-Dawley rat liver at 0.29 to 1.3 nmol/body, iv after 10 mins by gamma counting based PET imaging method; conditions: in vivo
Liver [4] = assay: Drug uptake in Sprague-Dawley rat liver at 0.20 to 1.4 nmol/body, iv after 2 mins by gamma counting based PET imaging method; conditions: in vivo
Kidney = assay: Drug uptake in Sprague-Dawley rat kidney at 0.20 to 1.4 nmol/body, iv after 2 mins by gamma counting based PET imaging method; conditions: in vivo
Intestine = assay: Drug uptake in Sprague-Dawley rat intestine at 0.20 to 1.4 nmol/body, iv after 60 mins by gamma counting based PET imaging method; conditions: in vivo, 1 h
[5] = Drug uptake in Sprague-Dawley rat urinary bladder at 0.20 to 1.4 nmol/body, iv after 60 mins by gamma counting based PET imaging method; conditions: in vivo, 1 h
Blood [6] = assay: Drug uptake in Sprague-Dawley rat blood at 0.20 to 1.4 nmol/body, iv within 40 mins by gamma counting based PET imaging method; conditions: in vivo
Liver [7] = assay: Drug uptake in Sprague-Dawley rat liver at 0.20 to 1.4 nmol/body, iv within 40 mins by gamma counting based PET imaging method; conditions: in vivo
[8] = Drug uptake in Sprague-Dawley rat bile at 0.20 to 1.4 nmol/body, iv within 40 mins by gamma counting based PET imaging method; conditions: in vivo
[9] = Drug uptake in Sprague-Dawley rat urine at 0.20 to 1.4 nmol/body, iv within 40 mins by gamma counting based PET imaging method; conditions: in vivo

Drug uptake (Blood [1]) [%ID/ml] | Drug uptake (Blood [2]) | Drug uptake (Liver [3]) | Drug uptake (Liver [4]) [%ID] | Drug uptake (Kidney) [%ID] | Drug uptake (Intestine) [%ID] | Drug uptake [5] [%ID] | Drug uptake (Blood [6]) | Drug uptake (Liver [7]) | Drug uptake [8] | Drug uptake [9] | Structure (SMILES)
> 1 | Active | Active | – | – | – | – | – | – | – | – | [11CH3]c1ccc(-c2cc(C(F)(F)F)nn2-c2ccc(S(N)(=O)=O)cc2)cc1
– | – | – | 35 | 14 | 58 | 22 | Active | Active | Active | Active | NS(=O)(=O)c1ccc(-n2nc(C(F)(F)F)cc2-c2ccc([11C](=O)O)cc2)cc1
